From article doi:10.1101/2025.03.10.642353v1, “Deciphering the role of histo-blood group antigens in bovine rotavirus C infection” (biorxiv, 2025)

Target: T1, bovine P[3] RVC VP8* (Bovine rotavirus C, UniProt L0N4C6)
T1 construct: gene VP4; VP8* galectin-like domain of polyprotein-like spike VP4 (trypsin-cleaved), residues 64-228 (E64-R228), synthetic codon-optimised gene, pGEX-2T N-terminal GST, E. coli BL21(DE3)
Assay: STD NMR (binding epitope mapping)
Conditions: PBS in D2O, pH 7.4, 278 K; 50 uM protein, 2 mM ligand; both anomers of reducing GlcNAc
From the text: STD NMR (binding epitope mapping) on bovine P[3]

CC(=O)N[C@H]1C(O)O[C@H](CO)[C@@H](O[C@@H]2O[C@H](CO)[C@H](O)[C@H](O)[C@H]2O[C@@H]2O[C@@H](C)[C@@H](O)[C@@H](O)[C@@H]2O)[C@@H]1O (stereo partly drawn) [H2, Fuc-α1,2-Gal-β1,4-GlcNAc]
STD NMR (binding epitope mapping): All performed STD NMR experiments showed clear signals confirming the binding of H2 antigen
